# Laboratory results from patent US9120749B2, “Quinoline derivatives and MELK inhibitors containing the same” (ONCOTHERAPY SCIENCE, INC., priority 2010, dated 2015).
# Where a name gives a salt, the structure may show the parent alone. Read-outs that look alike come from different tables or passages of the source.
# Experiments:
# [1] = tested on: HT-1197 cells; assay: Cell-based assay: anti-proliferative activity, Cell Counting Kit-8, 72 hours (HT-1197, negative control without MELK expression); conditions: Homo sapiens, HT1197, 72 h, HT1197 cells (negative control, no MELK expression), 72 hours
# Outline: (§1)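 IC50 values come from CCK-8 growth measurements taken 72 hours post-treatment of plated cells with test compounds. Expression of MELK across the panel was assessed through immunoblot of unfractionated lysates.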
# [2] = tested on: A549 cells; assay: Cell-based assay: anti-proliferative activity, Cell Counting Kit-8, 72 hours (A549); conditions: Homo sapiens, A549, 72 h, 72 hours
# Outline: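 A549 cells seeded in 96-well plates and exposed to candidate inhibitors for 72 hours. Growth measured with Cell Counting Kit-8; IC50 values calculated from the dose response.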
# [3] = tested on: 22Rv1 cells; assay: Cell-based assay: anti-proliferative activity, Cell Counting Kit-8, 72 hours (22Rv1); conditions: Homo sapiens, 22Rv1, 72 h
# [4] = tested on: DU4475 cells; assay: Cell-based assay: anti-proliferative activity, Cell Counting Kit-8, 72 hours (DU4475); conditions: Homo sapiens, DU-4475, 72 h
# [5] = tested on: T47D cells; assay: Cell-based assay: anti-proliferative activity, Cell Counting Kit-8, 72 hours (T47D); conditions: Homo sapiens, T47D, 72 h
# Outline: as §1
# [6] = biological target: MELK (Homo sapiens, UniProt Q14680); assay: Kinase assay: MELK activity, phosphorylation of FITC-labeled histone H3 peptide measured by IMAP fluorescence polarization; type: biochemical; conditions: read-out: IC50 (μM) (kinase assay)
# Chain of MELK (Q14680 whole entry, looked up): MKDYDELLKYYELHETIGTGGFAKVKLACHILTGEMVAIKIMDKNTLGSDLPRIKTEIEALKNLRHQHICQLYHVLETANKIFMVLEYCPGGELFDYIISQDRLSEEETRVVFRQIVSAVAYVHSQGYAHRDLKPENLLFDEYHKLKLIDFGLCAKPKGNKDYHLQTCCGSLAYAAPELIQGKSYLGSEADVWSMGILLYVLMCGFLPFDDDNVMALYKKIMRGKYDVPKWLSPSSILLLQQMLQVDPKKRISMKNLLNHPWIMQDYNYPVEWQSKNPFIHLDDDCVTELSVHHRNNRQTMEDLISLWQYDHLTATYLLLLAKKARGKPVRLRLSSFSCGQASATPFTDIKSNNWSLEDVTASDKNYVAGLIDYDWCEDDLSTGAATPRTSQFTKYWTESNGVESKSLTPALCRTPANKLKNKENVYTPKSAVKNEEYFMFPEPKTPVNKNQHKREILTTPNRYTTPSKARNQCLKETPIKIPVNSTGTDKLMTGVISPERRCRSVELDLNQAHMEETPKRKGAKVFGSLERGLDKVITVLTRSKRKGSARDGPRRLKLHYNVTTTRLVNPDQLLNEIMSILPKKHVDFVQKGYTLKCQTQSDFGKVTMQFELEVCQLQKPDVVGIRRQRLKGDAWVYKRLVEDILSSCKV
# Outline: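 Substrate is FITC-labeled histone H3 peptide. Compounds come from a 12.5 mM DMSO stock, diluted so assay DMSO is 1%. The stop step adds threefold-volume progressive binding solution, followed by 0.5 h at room temperature and an FP read.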
# [7] = MELK kinase assay, IMAP fluorescence polarization, 50 micro-M ATP
SMILES,IC50 [1] [µM],IC50 [2] [µM],IC50 [3] [µM],IC50 [4] [µM],IC50 [5] [µM],"IC50 [6, 7] [µM]",IC50 [6] [µM]
"CC(=O)c1cnc2ccc(-c3cc(Cl)c(O)c(Cl)c3)cc2c1Nc1cccc(CCN2CCN(C)CC2)c1 [Example 831, 1-(6-(3,5-dichloro-4-hydroxyphenyl)-4-(3-(2-(4-methylpiperazin-1-yl)ethyl)phenylamino)quinolin-3-yl)ethanone]",11,0.32,0.83,0.12,1.1,0.0054,
"CC(=O)c1cnc2ccc(-c3cc(F)c(O)c(Cl)c3)cc2c1N[C@H]1CC[C@H](CN2CCN(C)CC2)CC1 [Example 781, 1-(6-(3-chloro-5-fluoro-4-hydroxyphenyl)-4-(1R,4R)-4-((4-methylpiperazin-1-yl)methyl)cyclohexylamino)quinolin-3-yl)ethanone hydrochloride]",3.3,0.2,0.34,0.19,0.1,,0.013
"CC(=O)c1cnc2ccc(-c3cc(F)c(O)c(Cl)c3)cc2c1N[C@H]1CC[C@H](N(C)C)CC1 [Example 763, 1-{6-(3-Chloro-5-fluoro-4-hydroxyphenyl)-4-[trans-4-(dimethylamino)cyclohexylamino]quinolin-3-yl}ethanone]",1.8,0.27,0.14,0.093,0.05,,0.0087
"CC(=O)c1cnc2ccc(-c3cc(Cl)c(O)c(Cl)c3)cc2c1N[C@H]1C[C@H](CN(C)C)C1 [Example 784, 1-(6-(3,5-dichloro-4-hydroxyphenyl)-4-((1r,3r)-3-((dimethylamino)methyl)cyclobutylamino)quinolin-3-yl)ethanone]",3.2,0.74,0.95,0.2,0.6,,0.0031
"COc1cc(-c2ccc3ncc(C(C)=O)c(Nc4ccc(N5CCC(N)C5)nc4)c3c2)cc(Cl)c1O (stereo not drawn) [Example 774, 1-(4-(6-(3-aminopyrrolidin-1-yl)pyridin-3-ylamino)-6-(3-chloro-4-hydroxy-5-methoxyphenyl)quinolin-3-yl)ethanone]",0.71,0.045,0.082,0.056,0.034,,0.0019
"COc1cc(-c2ccc3ncc(C(=O)C4CC4)c(NC4CCN(C5CCNC5)CC4)c3c2)cc(Cl)c1O (stereo not drawn) [Example 764, (6-(3-chloro-4-hydroxy-5-methoxyphenyl)-4-(1-(pyrrolidin-3-yl)piperidin-4-ylamino)quinolin-3-yl)(cyclopropyl)methanone]",5.3,1.3,0.95,0.18,0.18,,0.0029
"CC(=O)c1cnc2ccc(-c3cc(F)c(O)c(Cl)c3)cc2c1N[C@H]1CCC[C@@H](CN2CCN(C)CC2)C1 [Example 832, 1-(6-(3-chloro-5-fluoro-4-hydroxyphenyl)-4-((1S,3R)-3-((4-methylpiperazin-1-yl)methyl)cyclohexylamino)quinolin-3-yl)ethanone hydrochloride]",0.79,0.26,0.44,0.24,0.17,0.009,
"CC(=O)c1cnc2ccc(-c3cc(F)c(O)c(Cl)c3)cc2c1Nc1ccc(OCCN(C)C)nc1 [Example 848, 1-(6-(3-chloro-5-fluoro-4-hydroxyphenyl)-4-(6-(2-(dimethylamino)ethoxy)pyridin-3-ylamino)quinolin-3-yl)ethanone hydrochloride]",5.3,0.29,0.44,0.16,0.14,0.011,
"CC(=O)c1cnc2ccc(-c3cc(Cl)c(O)c(Cl)c3)cc2c1N[C@H]1CC[C@H](CN2CCC(N)C2)CC1 (stereo partly drawn) [Example 779, 1-(4-(1R,4R)-4-((3-aminopyrrolidin-1-yl)methyl)cyclohexylamino)-6-(3,5-dichloro-4-hydroxyphenyl)quinolin-3-yl)ethanone hydrochloride]",10,1,0.23,0.13,0.14,,0.0017
"CCC(=O)c1cnc2ccc(-c3cc(F)c(O)c(Cl)c3)cc2c1Nc1ccc(CN(C)C)cc1 [Example 770, 1-(6-(3-chloro-5-fluoro-4-hydroxyphenyl)-4-((4-((dimethylamino)methyl)phenyl)amino)quinolin-3-yl)propan-1-one]",0.84,0.11,0.17,0.062,0.074,,0.015
"COc1cc(-c2ccc3ncc(C(C)=O)c(N[C@H]4CC[C@H](CN5CCN(C)CC5)CC4)c3c2)cc(Cl)c1O [Example 787, 1-(6-(3-chloro-4-hydroxy-5-methoxyphenyl)-4-(1R,4R)-4-((4-methylpiperazin-1-yl)methyl)cyclohexylamino)quinolin-3-yl)ethanone hydrochloride]",5.2,0.44,0.72,2.7,0.48,,0.0058
"CNC1CCN(c2ccc(Nc3c(C(C)=O)cnc4ccc(-c5cc(Cl)c(O)c(Cl)c5)cc34)cn2)C1 (stereo not drawn) [Example 788, 1-(6-(3,5-dichloro-4-hydroxyphenyl)-4-((6-(3-(methylamino)pyrrolidin-1-yl)pyridin-3-yl)amino)quinolin-3-yl)ethanone trihydrochloride]",8.6,0.16,0.1,0.07,0.071,,0.0017
CC(=O)c1cnc2ccc(-c3cc(Cl)c(O)c(Cl)c3)cc2c1N[C@H]1CC[C@H](CN2CCCC2)CC1 [Example 767],24,0.16,0.15,0.083,0.12,,0.0018
"CC(=O)c1cnc2ccc(-c3cc(F)c(O)c(Cl)c3)cc2c1Nc1ccc(N2CCC(N(C)C)C2)nc1 (stereo not drawn) [Example 853, 1-(6-(3-chloro-5-fluoro-4-hydroxyphenyl)-4-((6-(3-(dimethylamino)pyrrolidin-1-yl)pyridin-3-yl)amino)quinolin-3-yl)ethanone]",10,0.45,0.65,0.38,0.2,0.018,
"CN(C)CCN1CCC(Nc2c(C(=O)C3CC3)cnc3ccc(-c4cc(Cl)c(O)c(Cl)c4)cc23)CC1 [Example 819, cyclopropyl(6-(3,5-dichloro-4-hydroxyphenyl)-4-(1-(2-(dimethylamino)ethyl)piperidin-4-ylamino)quinolin-3-yl)methanone]",3.3,0.44,0.64,0.17,0.38,0.0024,
"CNC1CCN(c2ccc(Nc3c(C(=O)C4CC4)cnc4ccc(-c5cc(F)c(O)c(Cl)c5)cc34)cn2)C1 (stereo not drawn) [Example 789, (6-(3-chloro-5-fluoro-4-hydroxyphenyl)-4-((6-(3-(methylamino)pyrrolidin-1-yl)pyridin-3-yl)amino)quinolin-3-yl)(cyclopropyl)methanone trihydrochloride]",0.8,0.076,0.077,0.053,0.039,,0.0028
"CC(=O)c1cnc2ccc(-c3cc(Cl)c(O)c(Cl)c3)cc2c1Nc1cnn(C2CCN(C)C2)c1 (stereo not drawn) [Example 814, 1-(6-(3,5-dichloro-4-hydroxyphenyl)-4-((1-(1-methylpyrrolidin-3-yl)-1H-pyrazol-4-yl)amino)quinolin-3-yl)ethanone dihydrochloride]",0.78,0.29,0.13,0.057,0.14,0.0009,
CC(=O)c1cnc2ccc(-c3cc(F)c(O)c(Cl)c3)cc2c1N[C@H]1CC[C@H](CN2CCCC(N)C2)CC1 (stereo partly drawn) [Example 818],2.7,0.14,0.064,0.071,0.022,0.0043,
"CC(=O)c1cnc2ccc(-c3cc(F)c(O)c(Cl)c3)cc2c1N[C@H]1CCC[C@@H](CN(C)C)C1 [Example 826, 1-(6-(3-chloro-5-fluoro-4-hydroxyphenyl)-4-((1S,3R)-3-((dimethylamino)methyl)cyclohexylamino)quinolin-3-yl)ethanone hydrochloride]",1.9,0.54,0.48,0.22,0.25,0.0083,
"CN(C)CCc1cccc(Nc2c(C(=O)C3CC3)cnc3ccc(-c4cc(F)c(O)c(F)c4)cc23)c1 [Example 796, cyclopropyl(6-(3,5-difluoro-4-hydroxyphenyl)-4-(3-(2-(dimethylamino)ethyl)phenylamino)quinolin-3-yl)methanone]",0.67,0.14,0.52,0.14,0.43,,0.026
"CCC(=O)c1cnc2ccc(-c3cc(Cl)c(O)c(Cl)c3)cc2c1Nc1ccc(N2CCCC(N)C2)nc1 (stereo not drawn) [Example 824, 1-(4-(6-(3-aminopiperidin-1-yl)pyridin-3-ylamino)-6-(3,5-dichloro-4-hydroxyphenyl)quinolin-3-yl)propan-1-one]",0.28,0.036,0.026,0.026,0.021,0.0016,
